{"source": "paper PMC9545763", "about": "“Therapeutic potential of deuterium‐stabilized (R)‐pioglitazone—PXL065—for X‐linked adrenoleukodystrophy” (Journal of Inherited Metabolic Disease, 2022)", "target": "T1, ACSL4 (long-chain acyl-CoA synthetase 4) (Rattus norvegicus, UniProt O35547)", "T1 construct": "purified recombinant rat FLAG-ACSL4", "T1 sequence (O35547 whole entry)": "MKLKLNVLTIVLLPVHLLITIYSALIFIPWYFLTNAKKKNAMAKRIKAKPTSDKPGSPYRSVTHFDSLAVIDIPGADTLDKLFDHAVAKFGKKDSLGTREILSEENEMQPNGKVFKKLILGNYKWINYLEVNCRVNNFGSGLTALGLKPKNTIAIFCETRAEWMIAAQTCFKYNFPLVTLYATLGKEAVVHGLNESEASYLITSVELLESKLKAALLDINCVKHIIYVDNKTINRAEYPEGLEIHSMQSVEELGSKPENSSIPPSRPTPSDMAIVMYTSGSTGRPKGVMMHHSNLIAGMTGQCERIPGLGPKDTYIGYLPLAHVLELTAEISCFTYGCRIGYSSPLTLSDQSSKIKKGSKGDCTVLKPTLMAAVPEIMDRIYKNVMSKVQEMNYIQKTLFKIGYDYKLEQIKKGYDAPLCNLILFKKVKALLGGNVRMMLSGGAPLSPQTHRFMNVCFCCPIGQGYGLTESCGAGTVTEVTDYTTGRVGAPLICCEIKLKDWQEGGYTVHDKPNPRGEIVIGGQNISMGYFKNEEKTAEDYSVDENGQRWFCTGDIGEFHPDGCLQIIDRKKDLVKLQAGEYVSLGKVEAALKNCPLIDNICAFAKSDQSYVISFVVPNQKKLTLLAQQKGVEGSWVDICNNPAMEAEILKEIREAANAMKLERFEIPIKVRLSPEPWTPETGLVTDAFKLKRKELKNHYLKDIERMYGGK", "experiment": "ACSL enzyme activity assay with […] palmitate, scintillation counting", "type": "biochemical"}
{"smiles": "CCc1ccc(CCOc2ccc(C[C@H]3SC(=O)NC3=O)cc2)nc1", "note": "[PXL065]", "values": [{"measurement": "IC50", "value": 2120, "unit": "nM"}]}
{"smiles": "CCc1ccc(CCOc2ccc(CC3SC(=O)NC3=O)cc2)nc1", "note": "(racemic) [pioglitazone]", "values": [{"measurement": "IC50", "value": 2080, "unit": "nM"}]}
